One series deals with avoidance response. As to the kind of experiment: Active avoidance test. Conditions: Rattus norvegicus; male Fischer 344 rats; oral, 60 minutes prior to the test; read-out: Inhibition of avoidance response (ED50). The class given is in vivo. An excerpt: Effect of Treatment in Active Avoidance Test.
The administration of incremental doses of an antipsychotic drug in the rat causes inhibition of the active avoidance response and an increase in the number of escape responses without any increase in failures. This change in the animal's avoidance behaviour is characteristic of the effect of the administration of a compound endowed with anti-psychotic activity. Therefore, the evaluation of such behaviour enables us to detect and determine the antipsychotic capacity of a product.
Male Fischer 344 rats weighing 180 g (Charles River) were used.
To carry out the test to assess the avoidance behaviour of the rats a piece of equipment was used (Ugo Basile) consisting of a plastic cage divided into two compartments by a partition wall with an aperture in it allowing communication between the two sectors. Each of the two sectors can be illuminated by a 10 Watt lamp placed above a plexiglas lid covering the cage. A programming device allows the regulation of the duration and frequency of the unconditioned and discriminatory stimuli and a computerised system acquires the experimental data. […]
Before treatment with the study compounds, the animals were selected in relation to their ability to master the task. […] The results were expressed as means and standard errors.

Series [1] relates to catalepsy. Kind of series: in vivo. The following applies: male, Wistar, rat, po, Induction of catalepsy (ED50).
Procedure: Effect of Treatment in Catalepsy Test.
(§1) The test was carried out on male rats of the Wistar strain (n=7 animals); evaluation of catalepsy was done by means of a metal rod measuring 0.6 cm in diameter positioned at a distance of 10 cm from the work surface. […] Subsequent observations were recorded at 60, 90, 120, 180, 240, and 300 minutes after administration.
Another series concerns the target T1, 5HT2a receptor (Rattus norvegicus, UniProt P14842).
T1 construct: using different cerebral areas (striate D1 and D2; prefrontal cortex 5HT2a); from tissue; host or cells: prefrontal cortex
As to the kind of experiment: Radioligand binding to 5HT2a receptor (prefrontal cortex, 3H-ketanserin).

The target in series [2] is T2, cloned dopamine receptor subtype 3 (Rattus norvegicus, UniProt P19020).
T2 construct: purchased Signal Screen; host or cells: Sf9 cells
Kind of series: Radioligand binding to D3 receptor (transfected Sf9 cell membranes, 3H-7-OH-DPAT).
Procedure: (§2) For the D2 receptor ^3H-Spiperone (0.2 nM) was used and the non-specific binding was determined in the presence of 100 μM of (−)sulpiride. As regards the D3 receptor, the radioligand selected 3H-7-OH-DPAT was used at the concentration of 0.2 μM and the non-specific binding was obtained in the presence of dopamine 10 μM. Lastly, interaction with 5HT2a was evaluated using ^3H-ketanserin (0.7 μM) and the non-specific binding was determined in the presence of methysergide 1 μM.

Another series has as its target D1 receptor (Rattus norvegicus, UniProt P18901).
For series [3], the system named is catalepsy. The following applies: rat, in vivo, po, 100 mg/kg.
Procedure: Effect of Treatment in Catalepsy Test.
as §1

Where “and” joins values, the source holds several entries; their conditions need not be identical. Identical values can stand only once.

T1 sequence (P14842 whole entry): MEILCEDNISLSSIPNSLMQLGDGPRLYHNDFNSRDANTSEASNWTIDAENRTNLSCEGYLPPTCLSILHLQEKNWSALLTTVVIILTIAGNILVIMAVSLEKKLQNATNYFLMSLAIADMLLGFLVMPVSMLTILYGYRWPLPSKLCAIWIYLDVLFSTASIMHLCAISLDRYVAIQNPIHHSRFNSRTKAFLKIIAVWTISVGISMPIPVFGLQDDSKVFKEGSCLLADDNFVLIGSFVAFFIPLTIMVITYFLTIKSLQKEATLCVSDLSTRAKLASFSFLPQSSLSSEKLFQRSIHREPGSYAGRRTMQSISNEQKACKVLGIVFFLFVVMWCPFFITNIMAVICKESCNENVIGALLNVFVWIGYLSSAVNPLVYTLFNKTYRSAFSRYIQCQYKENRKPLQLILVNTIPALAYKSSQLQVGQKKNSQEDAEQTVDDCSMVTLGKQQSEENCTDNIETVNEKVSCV
D1 receptor, sequence (P18901 whole entry): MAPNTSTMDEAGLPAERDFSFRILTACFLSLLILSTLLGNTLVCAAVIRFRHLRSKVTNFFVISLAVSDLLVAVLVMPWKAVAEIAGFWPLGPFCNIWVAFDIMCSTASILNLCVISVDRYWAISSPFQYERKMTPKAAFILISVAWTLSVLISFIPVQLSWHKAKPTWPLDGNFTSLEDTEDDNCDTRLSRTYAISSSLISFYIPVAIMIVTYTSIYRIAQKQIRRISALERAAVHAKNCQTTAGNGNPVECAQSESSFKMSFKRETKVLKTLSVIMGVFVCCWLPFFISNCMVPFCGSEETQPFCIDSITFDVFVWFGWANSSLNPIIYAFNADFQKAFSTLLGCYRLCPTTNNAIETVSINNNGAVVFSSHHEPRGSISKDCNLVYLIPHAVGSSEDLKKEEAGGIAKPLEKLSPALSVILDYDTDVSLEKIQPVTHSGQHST
T2 sequence (P19020 whole entry): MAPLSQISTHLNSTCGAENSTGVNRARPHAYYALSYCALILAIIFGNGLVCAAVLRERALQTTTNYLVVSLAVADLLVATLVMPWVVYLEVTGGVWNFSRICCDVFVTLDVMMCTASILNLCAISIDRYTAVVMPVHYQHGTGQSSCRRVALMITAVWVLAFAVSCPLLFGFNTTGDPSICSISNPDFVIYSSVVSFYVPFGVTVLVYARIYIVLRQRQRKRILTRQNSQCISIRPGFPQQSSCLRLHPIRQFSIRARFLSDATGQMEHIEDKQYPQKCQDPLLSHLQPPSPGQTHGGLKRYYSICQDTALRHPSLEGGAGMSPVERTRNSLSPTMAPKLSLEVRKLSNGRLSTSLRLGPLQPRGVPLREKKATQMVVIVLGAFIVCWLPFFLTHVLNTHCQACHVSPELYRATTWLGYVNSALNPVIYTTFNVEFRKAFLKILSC
Procedure for 5HT2a receptor: as §2
Procedure for D1 receptor: as §2

Turning to `CN1CCN(C2=Nc3cc(Cl)ccc3Nc3ccccc32)CC1` [Clozapine, reference compound], the ED50 in the series on avoidance response is 4.9 mg/kg and 15 µmol/kg; with catalepsy [1], 100 mg/kg and 276 µmol/kg.

Regarding `CN1CCN(C2=Cc3ccccc3Cn3cccc32)CC1` [ST2329, 11-(4-Methylpiperazin-1-yl)-5H-pyrrolo[2,1-b][2]benzazepine], the “5HT2A pKi” value on 5HT2a receptor is 8.14. Besides, the “Log Y” value on 5HT2a receptor (from relative affinity for 5HT2, D2 and D1, classic >6.48, atypical <6.48) worked out at 3.20. Besides, the Ki at 5HT2a receptor (prefrontal cortex, 3H-ketanserin) amounted to 7.2 nM; in series [2], 224 nM; on D1 receptor (read-out: D1 (Ki: nM), striate, [3H]-SCH 23390), 125 nM. Moreover, the ED50 with avoidance response was 0.56 mg/kg and 2 µmol/kg. Besides, the “D1 pKi” value at D1 receptor was 6.90. The Presence of catalepsy entry in the series with catalepsy [3] is “no presence of catalepsy was detected”.
